Laboratory results reported in ChEMBL document CHEMBL1134026, “Synthesis and evaluation of novel amidate prodrugs of PMEA and PMPA” (Bioorg Med Chem Lett, 2001).

Key:
[1] = In vitro cytotoxic concentration against MT-4 cells; format: cell-based, MT4; conditions: human
[2] = system: CCRF-CEM; experiment: In vitro antiviral activity against HIV-2 in CEM cells; format: functional, cell-based; conditions: Homo sapiens
[3] = system: MT4; experiment: In vitro antiviral activity against HIV-1 in MT-4 cells; format: functional, cell-based; conditions: Homo sapiens
[4] = In vitro cytotoxic concentration against CEM cells; format: cell-based, CCRF-CEM; conditions: human
[5] = system: MT4; experiment: In vitro antiviral activity against HIV-2 in MT-4 cells; format: functional, cell-based; conditions: Homo sapiens
[6] = system: CCRF-CEM; experiment: In vitro antiviral activity against HIV-1 in CEM cells; format: functional, cell-based; conditions: Homo sapiens

Compound	CC50 [1]	EC50 [2]	EC50 [3]	CC50 [4]	EC50 [5]	EC50 [6]
COC(=O)[C@@H](Cc1ccccc1)NP(=O)(CO[C@H](C)Cn1cnc2c(N)ncnc21)Oc1ccc(Cl)cc1 (stereo partly specified)	64 µM	0.06 µM	0.04 µM	26 µM	0.07 µM	0.07 µM
COC(=O)CNP(=O)(CO[C@H](C)Cn1cnc2c(N)ncnc21)Oc1ccccc1 (stereo partly specified)	102 µM	0.31 µM	0.58 µM	88.5 µM	0.15 µM	0.23 µM
COC(=O)[C@@H](C)NP(=O)(CO[C@H](C)Cn1cnc2c(N)ncnc21)Oc1ccccc1 (stereo partly specified)	71.4 µM	0.09 µM	0.029 µM	27 µM	0.026 µM	0.053 µM
COC(=O)[C@H](C)NP(=O)(CO[C@H](C)Cn1cnc2c(N)ncnc21)Oc1ccccc1 (stereo partly specified)	213 µM	0.38 µM	0.99 µM	125 µM	0.65 µM	0.5 µM
COC(=O)[C@@H](C)NP(=O)(CO[C@H](C)Cn1cnc2c(N)ncnc21)Oc1ccc(Cl)cc1 (stereo partly specified)	57 µM	0.12 µM	0.15 µM	106 µM	0.26 µM	0.2 µM
COC(=O)CNP(=O)(COCCn1cnc2c(N)ncnc21)Oc1ccccc1 (stereo unspecified)	120 µM	4.5 µM	3.6 µM	80 µM	4.8 µM	5.6 µM
COC(=O)[C@H](C)NP(=O)(COCCn1cnc2c(N)ncnc21)Oc1ccccc1 (stereo partly specified)	120 µM	6 µM	15 µM	67 µM	7.2 µM	5 µM
COC(=O)[C@@H](C)NP(=O)(COCCn1cnc2c(N)ncnc21)Oc1ccccc1 (stereo partly specified)	5.1 µM	0.2 µM	0.23 µM	3.7 µM	0.15 µM	0.12 µM
C[C@H](Cn1cnc2c(N)ncnc21)OCP(=O)(Oc1ccccc1)Oc1ccccc1	> 250 µM	4 µM	6.2 µM	> 250 µM	4.9 µM	4 µM
Nc1ncnc2c1ncn2CCOCP(=O)(O)O [ADEFOVIR]	144 µM	10 µM	7 µM	69 µM	7.5 µM	7 µM
C[C@H](Cn1cnc2c(N)ncnc21)OCP(=O)(O)O [TENOFOVIR ANHYDROUS]	197 µM	3.67 µM	2.3 µM	> 250 µM	1.4 µM	3.67 µM
